From patent US12104190B2, “Taxadiene synthase TcTS2, encoding nucleotide sequence and use thereof” (AGRICULTURAL GENOMICS INSTITUTE AT SHENZHEN, CHINESE …, priority 2020, dated 2024)

Assays:
TcTS1 gene = test: Expression pattern of TcTS1 gene under MeJA stress (qPCR); type: cell-based, Taxus chinensis var. mairei; conditions: 100 μM MeJA, 0-4 h, 2^−ΔΔCt, reference TcACTIN1
Protocol: (§1) Taxus chinensis var. mairei cell line 211 were divided into two groups: the experimental group (MeJA+) was soaked with 100 μM methyl jasmonate; the control group (MeJA−) was soaked with 0.05% ethanol solution. The experiments of the two groups were carried out at the same time, and the samples were collected after 0 h, 2 h, 3 h and 4 h respectively, for the analysis of the expression pattern of TcTSs gene and the content of baccatin III and paclitaxel, with three biological replicates.
(§2) EASYspin Plant Total RNA Extraction Kit (Aidlab, Beijing) was used to extract and collect the total RNA of the samples with different treatment times. 1 μg of total RNA of different samples was respectively taken for the synthesis of the first-strand cDNA, using it as the template for real-time fluorescence quantitative PCR. Kit Hifair® III 1st Strand cDNA Synthesis (YEASEN, China) and qPCR fluorescent dye kit Hieff® qPCR SYBR® Green Master Mix (Low Rox Plus) (commercial reagents, purchased from YEASEN, China) were used for the first-strand cDNA synthesis. qPCR experiments were performed on the QuantStudio™ 3 system with 2 technical replicates and 3 biological replicates. Actin1 (TcACTIN1) gene of Taxus chinensis var. mairei was used as an internal reference gene, and the relative expression of TcTSs genes was calculated by using the 2^−ΔΔCt method.

[1] = test system: Taxus chinensis var. mairei cell line 211; test: Content changes of baccatin III and paclitaxel for different treatment times of MeJA (LC-MS); type: cell-based; conditions: 100 μM MeJA
Protocol: as §1
The metabolites were extracted by the modified Wolfender method. The specific steps include: weighing 100 mg of lyophilized cell powder to place it in a 2 ml centrifuge tube, adding 1.5 ml of extraction buffer (methanol:water=80:20, v/v) and vortexing to suspend it, containing 500 ng/ml dexamethasone as the internal standard, after ultrasonic extraction for 30 min, centrifuging at 14,000 g for 15 min; the supernatant was centrifuged and dried in a vacuum concentrator (LABCONCO), and finally the sample was resuspended in 200 μL methanol solvent (80:20, v/v) for LCMS analysis. Samples were analyzed by LC-MS by using an ACQUITY UPLC I-Class/AB SCIEX (Waters) instrument.
The separation column was Waters (2.1×50 mm; ACQUITY UPLC™ Waters XselectHSS T3); the injection volume was 10 μL, and the flow rate was 0.2 mL/min.
The mobile phase composition: A was 0.1% formic acid methanol; B was 0.1% formic acid water.
The LC separation procedure was as follows: equilibrating with 40% A for 2 min, followed by gradient elution for 10 min to 100% B, maintaining for 2 min, and then returning to 40% A equilibration for 1 min. ESI ion source, positive ion mode. Data acquisition and processing were performed on AB SCIEXAnalyst 1.6.3 software (Applied Biosystems).

TcTS2 gene = test: Expression pattern of TcTS2 gene under MeJA stress (qPCR); type: cell-based, Taxus chinensis var. mairei; conditions: 100 μM MeJA, 4 h, 2^−ΔΔCt, reference TcACTIN1
Protocol: as §1, §2

[2] = Kinetic constants of TcTSs-His6 ([1-3H]-GGPP, liquid scintillation counting); type: biochemical, Taxus chinensis var. mairei
Protocol: Kinetic parameter detection: standard enzymatic reaction with a total volume of 100 μL, containing enzyme reaction buffer (25 mM, pH 8.5, 10% glycerol, 5 mM DTT, 5 mM ascorbate, 5 mM sodium metabisulfite and 1 mM MgCl2), 34 μg (TcTS1-His6) or 18 μg (TcTS2-His6) recombinant protein, and […] concentrations of GGPP (0.2 μM, 0.5 μM, 1 μM, 2.5 μM, 5 μM, 10 μM, 25 μM, 50 μM) mixed with […] substrate (American Radiolabeled Chemicals, Inc, 30 Ci/mM).
Labeled [1-3H]-GGPP was diluted 400-fold with unlabeled GGPP (Sigma, 1 mg/mL). The reaction mixture was reacted at 32° C. for 30 min, then quenching with 100 μL of stop buffer (containing IM EDTA and 4M NaOH) for 10 min; the reaction mixture was extracted with 800 μL of n-hexane (vortexing for 2 min, centrifuging at 12,000 rpm for 10 min); 400 μL of n-hexane extract was taken to add into 2 mL of liquid scintillation cocktail to mix well. The total radioactivity of the reaction products was determined by using a liquid scintillation counter (Tri-Carb 2910TR, Perkin Elmer). Kinetic constants were calculated by nonlinear regression fitting of Michaelis-Menten equation through Origin 8.6 software.

[3] = In vitro activity of TcTSs-His6 (GC-MS of enzymatic reaction product); type: biochemical, Taxus chinensis var. mairei; conditions: 100 μg purified protein, 100 μM GGPP, 32° C., 2 h
Protocol: The in vitro enzymatic reaction system was 500 μL, containing 100 μg purified protein, 100 μM GGPP (Sigma-Aldrich) and enzyme reaction buffer (25 mM, pH 8.5, 10% glycerol, 5 mM DTT, 5 mM ascorbate, 5 mM sodium metabisulfite and 1 mM MgCl2), the reaction mixture was covered with 500 μL of pentane (Macklin, GC-MS grade) and reacted in a 32° C. water bath for 2 h, vortexing for 2 min, centrifuging at 5000 rpm for 10 min; the pentane layer was taken out, putting into 2 mL of the sample, concentrating at low temperature by using a nitrogen blower; the product was analyzed by gas chromatography mass spectrometry (GC-MS) instrument.
The control group was the reaction product of purified recombinant protein TcTSs-His6 after being boiled at 100° C. for 10 min. The GC-MS instrument was Agilent 7890B/7000C (Agilent Technologies, Waldbronn, USA), mass spectrometry detector parameters: 70 eV, helium flow rate 1.2 mL/min, chromatographic column Agilent HP-5 MS (5% phenylmethyl silica, 30 m×250 μm inner diameter, 0.25 μm film thickness), the injection volume is 1-5 μL; the temperature program of the column oven is as follows: 45° C. for 1 min, then 10° C./min gradient increase to 250° C., and remaining at 250° C. for 5 min. […]

[4] = substrate GGPP, 32° C., 30 min, Michaelis-Menten fit

| Molecule | expression of TcTS1 under MeJA stress (TcTS1 gene) | increased fold of baccatin III as compared to the control group ([1]; 2 h) [times] | increased fold of paclitaxel as compared to the control group ([1]; 2 h) [times] | increase fold of baccatin III ([1]; 4 h) [times] | increase fold of paclitaxel ([1]; 4 h) [times] | induction fold of TcTS2 expression relative to 0 h (TcTS2 gene) | catalytic efficiency relative to TcTS1-His6 (Kcat value) ([2]; from Kcat values) [times] | Ka [2, 4] [pM/µg/min] | Kcat [2, 4] [s⁻¹] | main products taxa-4 (5), 11 (12)-diene (accounting for) [3] [%] | secondary products taxa-4 (20), 11 (12)-diene (accounting for) [3] [%] |
| --- | --- | --- | --- | --- | --- | --- | --- | --- | --- | --- | --- |
| CC/C=C\CC1C(=O)CCC1CC(=O)OC (centres unmarked) [MeJA, methyl jasmonate] | up-regulated | 1.48 | 9.53 | 7.01 | 12.91 | 7 |  |  |  |  |  |
| TcTS2-His6: taxadiene synthase from Taxus chinensis var. mairei, amino acid sequence SEQ ID NO: 1 (protein, C-terminal His6 tag; Amino acid sequence of Taxadiene Synthase TcTS2) MSSSPTKLATENANAVAESNLIPRLSANYHGDLWHHGVIQTLQTPYQESSSYQERAEELIVKIKDMFKAVEEGAISPSAYDTAWVARVPDGSEKPRFPQALNWLLHNQLQDGSWGLESHFMLSDRLLSTLNSVISLLVWKTGQQQVEQGTLFITENLKLLEGEDELPPDFEIIFPALLQKAKALGMSLPDHDLPFIKSLSVAREARLASYTDNNIPASMLNALEGLEEVIDWDKIMRFQMPCLYSIDLLERLSLVDNIEHLGIGRHFKQEIKVALDYVYRYWSERGIGLGRDSLIPDLNTTALGLRTLRAHGYNVSSEVLNNFKDENGRFFSSLGQTHVELRSMVNLLRASDLAFPDEPLMDDAKIFAEAYLRDALATRISTNTKLFKEIDYAVEYPWHMSIPRLEARSYIDVYDDDYTWQNKTLYRMSNLSNAYCLELAKLDFNIVQSLHQEELKLLTRWWKESGMADINFTRHRVAEVYFSSATFEPEYSSTRIAFTKIGCLQVLFDDMADIFATLDELRDFTEGVKRWDTSLIHKLPDCMQTCFRVWFNLMEEVNNDVSNVQGRDMLNHIRKPWELYFNCYVQEREWLDAGYIPTLEEYLKTYSISVGLGPCTLQPILLMGDIVKDDVVEKVHYPSNLFELVSLSWRLTNDTKTYQAEKARGQQASGIACYMKDNPGSTEEDAIKYICGVVDRALKEACFEYFKPADDVPMSCKSFIFNLRLCVQIFYKFIDGYGIANEEIKDYIRKVYIEPIQV |  |  |  |  |  |  | 3 | 8.6 ± 1.5 | 0.00901 | 94 | 4 |
